Experimental data reported in publication PMC7108740, “Exploring the molecular structures that confer ligand selectivity for galanin type II and III receptors” (PLoS ONE, 2020).
Ends that are not written are not given here.

Columns and labels:
Type in all cases: cell-based
[1] = target: T1, GALR3 single mutant A^264P (Homo sapiens, UniProt O60755, A264P); assay: SRE-luc luciferase assay, GALR3 A264P; settings: GALR3 A^264P; SRE-luc in HEK293 Gqi cells, ligand 6 h; mean ± S.E.; SEM
T1 construct: expressed in transfected cells; host or cells: HEK293 cells stably expressing Gqi
From the text: (§1) For domain swapping between GALR2 and GALR3, individual cDNA fragments of interest were amplified by polymerase chain reaction (PCR) with Pfu polymerase (ELPIS Biotech, Daejeon, Korea) and two specific primers, one corresponding to the 5' or 3' end of the GALR2 or GALR3 cDNA and the other to the region of overlap between the two receptors. The two resulting fragments, one from GALR2 and the other from GALR3, were subjected to a second round of PCR to generate the chimeric cDNAs. To construct single, double-, triple-, pentuple-, hextuple-, and septuple-mutant receptors, amino acids of GALR3 were substituted for the amino acids at the corresponding positions in GALR2 using PCR-based site-directed mutagenesis. All of the chimeric constructs were cloned into the pcDNA3 expression vector at HindⅢ and XbaⅠ sites. The DNA sequences of the chimeras were verified by automatic sequencing. […] The luciferase activity in 50 μl cell extract was determined using a luciferase assay system according to the standard protocol for the Synergy 2 Multi-Mode Microplate Reader (BioTek, Winooski, VT, USA). […] The concentrations of agonists that induced half-maximal stimulation (EC50) were calculated using the GraphPad PRISM5 software (GraphPad software, Inc., San Diego, CA). […]

[2] = target: T2, GALR3 single mutant S^266T (Homo sapiens, UniProt O60755, S266T); assay: SRE-luc luciferase assay, GALR3 S266T; settings: GALR3 S^266T; SRE-luc in HEK293 Gqi cells, ligand 6 h; mean ± S.E.; SEM
T2 construct: expressed in transfected cells; host or cells: HEK293 cells stably expressing Gqi
From the text: as §1

[3] = target: T3, GALR3 single mutant P^267R (Homo sapiens, UniProt O60755, P267R); assay: SRE-luc luciferase assay, GALR3 P267R; settings: GALR3 P^267R; SRE-luc in HEK293 Gqi cells, ligand 6 h; mean ± S.E.; SEM
T3 construct: expressed in transfected cells; host or cells: HEK293 cells stably expressing Gqi
From the text: as §1

[4] = target: T4, GALR3 single mutant G^192S (Homo sapiens, UniProt O60755, G192S); assay: SRE-luc luciferase assay, GALR3 G192S; settings: GALR3 G^192S; SRE-luc in HEK293 Gqi cells, ligand 6 h; mean ± S.E.; SEM
T4 construct: expressed in transfected cells; host or cells: HEK293 cells stably expressing Gqi
From the text: as §1

[5] = target: T5, GALR3 single mutant A^191F (Homo sapiens, UniProt O60755, A191F); assay: SRE-luc luciferase assay, GALR3 A191F; settings: GALR3 A^191F; SRE-luc in HEK293 Gqi cells, ligand 6 h; mean ± S.E.; SEM
T5 construct: expressed in transfected cells; host or cells: HEK293 cells stably expressing Gqi
From the text: as §1

T4 sequence (O60755 whole entry G192S): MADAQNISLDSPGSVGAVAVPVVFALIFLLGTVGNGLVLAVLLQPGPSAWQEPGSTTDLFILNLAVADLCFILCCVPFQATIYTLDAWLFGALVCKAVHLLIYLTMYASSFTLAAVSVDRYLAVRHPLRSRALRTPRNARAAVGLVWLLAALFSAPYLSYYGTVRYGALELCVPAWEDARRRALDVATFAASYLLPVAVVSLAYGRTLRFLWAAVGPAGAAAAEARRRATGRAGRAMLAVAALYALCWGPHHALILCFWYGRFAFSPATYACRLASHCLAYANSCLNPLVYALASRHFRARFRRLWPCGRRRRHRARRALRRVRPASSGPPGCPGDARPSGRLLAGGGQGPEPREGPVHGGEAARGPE
T3 sequence (O60755 whole entry P267R): as the sequence (O60755 whole entry G192S) above, with S192G, P267R counted along it
T1 sequence (O60755 whole entry A264P): as the sequence (O60755 whole entry G192S) above, with S192G, A264P counted along it
T5 sequence (O60755 whole entry A191F): as the sequence (O60755 whole entry G192S) above, with A191F, S192G counted along it
T2 sequence (O60755 whole entry S266T): as the sequence (O60755 whole entry G192S) above, with S192G, S266T counted along it

| EC50 [1] | EC50 [2] | EC50 [3] | EC50 [4] | EC50 [5] | Compound |
| --- | --- | --- | --- | --- | --- |
| 0.274 ± 0.076 µM | 0.038 ± 0.0105 µM | 0.115 ± 0.0487 µM | 0.0355 ± 0.0126 µM | 0.0912 ± 0.031 µM | CSCC[C@H](NC(=O)[C@H](C)NC(=O)[C@H](CCC(N)=O)NC(=O)[C@@H]1CCCN1C(=O)[C@@H](NC(=O)[C@H](Cc1c[nH]c2ccccc12)NC(=O)[C@@H](N)CC(N)=O)[C@@H](C)O)C(=O)N[C@@H](CC(C)C)C(=O)N[C@@H](Cc1ccc(O)cc1)C(=O)N[C@@H](CC(C)C)C(=O)N[C@@H](CCCCN)C(=O)NCC(=O)N[C@@H](C)C(=O)N[C@@H](CCC(N)=O)C(N)=O [SPX, reference compound] |
| – | – | – | 0.355 ± 0.109 µM | – | NWTPQAMLYLKGPQ-NH2 [P^13-SPX] |
